From the supplement of paper PMC10627819

Columns and labels:
Test in all cases: fitness (endpoint OD595 vs no drug) (fraction); higher = more growth
B. subtilis 168 = tested on: B. subtilis 168
In short: (§1)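 Fitness expresses the optical density reached at the stationary-phase transition as a fraction of the robust mean of no-drug control wells. It is capped at 1. Measurements were OD595 every 30 min for 14 h at 37 °C after inoculation of 384-well plates at OD595 0.01 (30 µl, or 55 µl for S. pneumoniae), minus the first reading.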

S. aureus Newman = settings: one replicate
In short: as §1

S. pneumoniae D39V = tested on: S. pneumoniae D39V
In short: as §1
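Further: OD595 on entry to stationary phase over no-drug wells; at most 1.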

O=C(O)[C@H]1/C(=C/CO)O[C@@H]2CC(=O)N21 [Clavulanic acid] + CC(C1CCC(C(O1)OC2C(CC(C(C2O)OC3C(C(C(CO3)(C)O)NC)O)N)N)N)NC [Gentamicin]
main component drawn
Settings	fitness
B. subtilis 168, first compound 1.5 µg/mL, partner 0.0625 µg/mL	0.884
B. subtilis 168, first compound 3 µg/mL, partner 0.0625 µg/mL	0.859
B. subtilis 168, first compound 6 µg/mL, partner 0.0625 µg/mL	0.737
B. subtilis 168, first compound 6 µg/mL, partner 0.25 µg/mL	0.118
S. aureus Newman, first compound 0.03125 µg/mL, partner 1 µg/mL	0.92
S. aureus Newman, first compound 0.03125 µg/mL, partner 2 µg/mL	≥ 1
S. aureus Newman, first compound 0.03125 µg/mL, partner 4 µg/mL	0.768
S. aureus Newman, first compound 0.0625 µg/mL, partner 1 µg/mL	0.947
S. aureus Newman, first compound 0.0625 µg/mL, partner 2 µg/mL	0.893
S. aureus Newman, first compound 0.0625 µg/mL, partner 4 µg/mL	0.566
S. aureus Newman, first compound 0.125 µg/mL, partner 1 µg/mL	0.872
S. aureus Newman, first compound 0.125 µg/mL, partner 2 µg/mL	0.835
S. aureus Newman, first compound 0.125 µg/mL, partner 4 µg/mL	0.388
S. pneumoniae D39V, first compound 0.5 µg/mL, partner 2 µg/mL	0.96
S. pneumoniae D39V, first compound 0.5 µg/mL, partner 4 µg/mL	0.955
S. pneumoniae D39V, first compound 0.5 µg/mL, partner 8 µg/mL	0.932
S. pneumoniae D39V, first compound 1 µg/mL, partner 2 µg/mL	0.902
S. pneumoniae D39V, first compound 1 µg/mL, partner 4 µg/mL	0.896
S. pneumoniae D39V, first compound 1 µg/mL, partner 8 µg/mL	0.885
S. pneumoniae D39V, first compound 2 µg/mL, partner 2 µg/mL	0.795
S. pneumoniae D39V, first compound 2 µg/mL, partner 4 µg/mL	0.8
S. pneumoniae D39V, first compound 2 µg/mL, partner 8 µg/mL	0.787

O=C(O)[C@H]1/C(=C/CO)O[C@@H]2CC(=O)N21 [Clavulanic acid] + CCC[C@@H]1C[C@@H](C(=O)N[C@@H]([C@H]2O[C@H](SC)[C@H](O)[C@@H](O)[C@H]2O)[C@H](C)Cl)N(C)C1 [Clindamycin]
fitness, B. subtilis 168, one replicate
Settings	first compound 1.5 µg/mL	first compound 3 µg/mL	first compound 6 µg/mL
partner 0.0039 µg/mL	0.957	0.974	0.931
partner 0.0078 µg/mL	0.842	0.826	0.791
partner 0.0156 µg/mL	0.836	0.763	0.739

Settings	fitness
B. subtilis 168, first compound 1.5 µg/mL, partner 0.0625 µg/mL	0.609
B. subtilis 168, first compound 1.5 µg/mL, partner 0.125 µg/mL	0.322
B. subtilis 168, first compound 1.5 µg/mL, partner 0.25 µg/mL	0.308
B. subtilis 168, first compound 3 µg/mL, partner 0.0625 µg/mL	0.404
B. subtilis 168, first compound 3 µg/mL, partner 0.125 µg/mL	0.313
B. subtilis 168, first compound 3 µg/mL, partner 0.25 µg/mL	0.26
B. subtilis 168, first compound 6 µg/mL, partner 0.0625 µg/mL	0.398
B. subtilis 168, first compound 6 µg/mL, partner 0.125 µg/mL	0.24
B. subtilis 168, first compound 6 µg/mL, partner 0.25 µg/mL	0.217
S. aureus Newman, first compound 0.03125 µg/mL, partner 0.0312 µg/mL	0.863
S. aureus Newman, first compound 0.03125 µg/mL, partner 0.0625 µg/mL	0.544
S. aureus Newman, first compound 0.03125 µg/mL, partner 0.125 µg/mL	0.38
S. aureus Newman, first compound 0.0625 µg/mL, partner 0.0312 µg/mL	0.889
S. aureus Newman, first compound 0.0625 µg/mL, partner 0.0625 µg/mL	0.518
S. aureus Newman, first compound 0.0625 µg/mL, partner 0.125 µg/mL	0.375
S. aureus Newman, first compound 0.125 µg/mL, partner 0.0312 µg/mL	0.785
S. aureus Newman, first compound 0.125 µg/mL, partner 0.0625 µg/mL	0.402
S. aureus Newman, first compound 0.125 µg/mL, partner 0.125 µg/mL	0.282
S. pneumoniae D39V, first compound 0.5 µg/mL, partner 0.0125 µg/mL	0.779
S. pneumoniae D39V, first compound 0.5 µg/mL, partner 0.015 µg/mL	0.789
S. pneumoniae D39V, first compound 0.5 µg/mL, partner 0.025 µg/mL	0.511
S. pneumoniae D39V, first compound 0.5 µg/mL, partner 0.03 µg/mL	0.516
S. pneumoniae D39V, first compound 0.5 µg/mL, partner 0.05 µg/mL	0.134
S. pneumoniae D39V, first compound 0.5 µg/mL, partner 0.06 µg/mL	0.305
S. pneumoniae D39V, first compound 1 µg/mL, partner 0.0125 µg/mL	0.749
S. pneumoniae D39V, first compound 1 µg/mL, partner 0.015 µg/mL	0.78
S. pneumoniae D39V, first compound 1 µg/mL, partner 0.025 µg/mL	0.485
S. pneumoniae D39V, first compound 1 µg/mL, partner 0.03 µg/mL	0.567
S. pneumoniae D39V, first compound 1 µg/mL, partner 0.05 µg/mL	0.116
S. pneumoniae D39V, first compound 1 µg/mL, partner 0.06 µg/mL	0.417
S. pneumoniae D39V, first compound 2 µg/mL, partner 0.0125 µg/mL	0.683
S. pneumoniae D39V, first compound 2 µg/mL, partner 0.015 µg/mL	0.566
S. pneumoniae D39V, first compound 2 µg/mL, partner 0.025 µg/mL	0.407
S. pneumoniae D39V, first compound 2 µg/mL, partner 0.03 µg/mL	0.399
S. pneumoniae D39V, first compound 2 µg/mL, partner 0.05 µg/mL	0.101
S. pneumoniae D39V, first compound 2 µg/mL, partner 0.06 µg/mL	0.245

O=C(O)[C@H]1/C(=C/CO)O[C@@H]2CC(=O)N21 [Clavulanic acid] + CCN(CC)CCOC(=O)c1ccc(N)cc1 [Procaine]
fitness
Settings	partner 85.5 µg/mL	partner 171 µg/mL	partner 342 µg/mL
B. subtilis 168, first compound 1.5 µg/mL	0.876	0.92	0.902
B. subtilis 168, first compound 3 µg/mL	0.839	0.831	0.795
B. subtilis 168, first compound 6 µg/mL	0.746	0.739	0.672
S. aureus Newman, first compound 0.03125 µg/mL	0.948	0.929	0.963
S. aureus Newman, first compound 0.0625 µg/mL	0.982	≥ 1	≥ 1
S. aureus Newman, first compound 0.125 µg/mL	0.872	0.852	0.894
S. pneumoniae D39V, first compound 0.5 µg/mL	0.994	≥ 1	≥ 1
S. pneumoniae D39V, first compound 1 µg/mL	0.957	0.977	0.934
S. pneumoniae D39V, first compound 2 µg/mL	0.832	0.912	0.795

O=C(O)[C@H]1/C(=C/CO)O[C@@H]2CC(=O)N21 [Clavulanic acid] + CN1C2=CC=CC=C2N=C3C1=CC=CC3=O [Pyocyanin]
fitness
Settings	partner 0.65 µg/mL	partner 1.25 µg/mL	partner 1.3 µg/mL	partner 2.5 µg/mL	partner 5 µg/mL
B. subtilis 168, first compound 1.5 µg/mL	–	0.91	–	0.837	0.678
B. subtilis 168, first compound 3 µg/mL	–	0.798	–	0.818	0.665
B. subtilis 168, first compound 6 µg/mL	–	0.748	–	0.719	0.604
S. aureus Newman, first compound 0.03125 µg/mL	–	0.884	–	0.898	0.723
S. aureus Newman, first compound 0.0625 µg/mL	–	0.934	–	0.87	0.785
S. aureus Newman, first compound 0.125 µg/mL	–	0.855	–	0.827	0.74
S. pneumoniae D39V, first compound 0.5 µg/mL	≥ 1	–	0.765	–	–
S. pneumoniae D39V, first compound 1 µg/mL	0.94	–	0.791	–	–
S. pneumoniae D39V, first compound 2 µg/mL	0.861	–	0.581	–	–
